ChEMBL document CHEMBL4325823 (Medchemcomm, 2018)
Each block holds one molecule with its values, some of them ahead of it.

How the values were obtained:
[1] = Inhibition of bacterial beta lactamase class C; design: species or system Bacteria
[2] = Inhibition of bacterial Class A beta-lactamase; design: species or system Bacteria
Klebsiella pneumoniae [3] = test: Inhibition of beta lactamase KPC in Klebsiella pneumoniae assessed as potentiation of meropenem-induced antibacterial activity by measuring fold reduction in meropenem MIC
Klebsiella pneumoniae [4] = test: Inhibition of beta lactamase class C in Klebsiella pneumoniae assessed as potentiation of meropenem-induced antibacterial activity by measuring fold reduction in meropenem MIC
Klebsiella pneumoniae [5] = test: Inhibition of beta lactamase OXA in Klebsiella pneumoniae assessed as potentiation of meropenem-induced antibacterial activity by measuring fold reduction in meropenem MIC
Enterobacteriaceae [6] = test: Inhibition of ESBL in Enterobacteriaceae assessed as potentiation of cefepime-induced antibacterial activity by measuring cefepime MIC by broth microdilution method
Enterobacteriaceae [7] = test: Inhibition of ESBL in Enterobacteriaceae assessed as potentiation of cefepime-induced antibacterial activity by measuring cefepime MIC at 1:1 ratio of test compound to cefepime by broth microdilution method
Escherichia coli = test: Inhibition of ESBL in Escherichia coli clinical isolate assessed as potentiation of cefepime-induced antibacterial activity by measuring fold reduction in cefepime MIC at 1:1 ratio of test compound to cefepime by […] method
Enterobacteriaceae [8] = test: Inhibition of derepressed beta-lactamase AmpC mutant in Enterobacteriaceae assessed as potentiation of cefepime-induced antibacterial activity by measuring cefepime MIC at 1:1 ratio of test compound to cefepime by broth microdilution method
Enterobacteriaceae [9] = test: Inhibition of beta lactamase in Enterobacteriaceae clinical isolate assessed as potentiation of cefepime-induced antibacterial activity by measuring cefepime MIC at 1:1 ratio of test compound to cefepime by microarray-based method
Enterobacteriaceae [10] = test: Inhibition of plasmid-encoded Ampc in Enterobacteriaceae assessed as potentiation of cefepime-induced antibacterial activity by measuring cefepime MIC at 1:1 ratio of test compound to cefepime by broth microdilution method
Pseudomonas aeruginosa [11] = test: Inhibition of beta lactamase in Pseudomonas aeruginosa assessed as potentiation of cefepime-induced antibacterial activity by measuring cefepime MIC at 1:1 ratio of test compound to cefepime by microarray based method
Enterobacteriaceae [12] = test: Inhibition of SHV in Enterobacteriaceae assessed as potentiation of cefepime-induced antibacterial activity by measuring cefepime MIC at 1:1 ratio of test compound to cefepime by broth microdilution method
Enterobacteriaceae [13] = test: Inhibition of carbapenemase in Enterobacteriaceae clinical isolate assessed as potentiation of cefepime-induced antibacterial activity by measuring fold reduction in cefepime MIC at 1:1 ratio of test compound to cefepime by microarray-based method
[14] = biological target: Beta-lactamase OXA-23 (Acinetobacter baumannii) (UniProt Q9L4P2); test: Inhibition of beta-lactamase OXA-23 in Acinetobacter baumannii ST2 assessed as potentiation of sulbactam-induced antibacterial activity by measuring sulbactam MIC at 8 ug/ml
Chain of Beta-lactamase OXA-23 (Acinetobacter baumannii) (Q9L4P2 whole entry): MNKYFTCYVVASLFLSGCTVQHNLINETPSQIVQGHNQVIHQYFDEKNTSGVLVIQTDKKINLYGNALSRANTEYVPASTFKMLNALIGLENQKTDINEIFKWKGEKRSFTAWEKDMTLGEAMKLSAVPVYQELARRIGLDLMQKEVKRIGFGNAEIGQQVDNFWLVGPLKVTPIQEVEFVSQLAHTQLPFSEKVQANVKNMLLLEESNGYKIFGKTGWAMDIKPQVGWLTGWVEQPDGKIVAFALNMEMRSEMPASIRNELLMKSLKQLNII

Enterobacteriaceae [15] = test: Inhibition of CTX-M-15 in Enterobacteriaceae assessed as potentiation of cefepime-induced antibacterial activity by measuring cefepime MIC at 1:1 ratio of test compound to cefepime by broth microdilution method
Enterobacteriaceae [16] = test: Inhibition of metallo-beta-lactamase in Enterobacteriaceae assessed as potentiation of cefepime-induced antibacterial activity by measuring cefepime MIC at 1:1 ratio of test compound to cefepime by broth microdilution method
Klebsiella sp. = test: Inhibition of ESBL in Klebsiella sp. assessed as potentiation of cefepime-induced antibacterial activity by measuring fold reduction in cefepime MIC at 1:1 ratio of test compound to cefepime by […] method
Enterobacteriaceae [17] = test: Inhibition of KPC in Enterobacteriaceae assessed as potentiation of cefepime-induced antibacterial activity by measuring cefepime MIC at 1:1 ratio of test compound to cefepime by broth microdilution method
Acinetobacter sp. = test: Inhibition of beta lactamase in Acinetobacter sp. assessed as potentiation of cefepime-induced antibacterial activity by measuring cefepime MIC at 1:1 ratio of test compound to cefepime by microarray based method
[18] = biological target: Beta-lactamase OXA-23 (Acinetobacter baumannii) (UniProt Q9L4P2); test: Inhibition of beta-lactamase OXA-23 in Acinetobacter baumannii ST2 assessed as potentiation of cefepime-induced antibacterial activity by measuring cefepime MIC at 8 ug/ml
[19] = Inhibition of bacterial NDM1; design: species or system Bacteria
Pseudomonas aeruginosa [20] = test: Inhibition of beta lactamase in Pseudomonas aeruginosa assessed as potentiation of ceftazidime-induced antibacterial activity by measuring ceftazidime MIC at 4 ug/ml (reference value: 64 ug/ml)
Enterobacteriaceae [21] = test: Inhibition of beta lactamase CMY-2 in CTX-M-15/CTX-M-14/KPC/NDM1 deficient Enterobacteriaceae assessed as potentiation of ceftazidime-induced antibacterial activity by measuring ceftazidime MIC by broth microdilution method
Enterobacteriaceae [22] = test: Inhibition of beta lactamase CTX-M-15 in KPC/NDM1 deficient Enterobacteriaceae assessed as potentiation of ceftazidime-induced antibacterial activity by measuring ceftazidime MIC by broth microdilution method
Enterobacteriaceae [23] = test: Inhibition of beta lactamase SHV in Enterobacteriaceae assessed as potentiation of ceftazidime-induced antibacterial activity by measuring ceftazidime MIC by broth microdilution method
Enterobacteriaceae [24] = test: Inhibition of beta lactamase KPC in Enterobacteriaceae assessed as potentiation of ceftazidime-induced antibacterial activity by measuring ceftazidime MIC by broth microdilution method
Enterobacteriaceae [25] = test: Inhibition of beta lactamase CTX-M-14 in CTX-M-15 deficient Enterobacteriaceae assessed as potentiation of ceftazidime-induced antibacterial activity by measuring ceftazidime MIC by broth microdilution method
Pseudomonas aeruginosa [26] = test: Inhibition of beta lactamase in Pseudomonas aeruginosa assessed as potentiation of imipenem-induced antibacterial activity by measuring […] MIC at 4 ug/ml (reference value: 16 ug/ml)
[27] = tested on: Klebsiella pneumoniae ATCC BAA-1705; test: Inhibition of beta lactamase KPC in Klebsiella pneumoniae BAA-1705 assessed as potentiation of meropenem-induced antibacterial activity by measuring fold reduction in meropenem MIC50 by checkerboard microdilution assay relative to meropenem alone
[28] = tested on: Klebsiella pneumoniae ATCC BAA-1705; test: Inhibition of beta lactamase KPC in Klebsiella pneumoniae BAA-1705 assessed as potentiation of meropenem-induced antibacterial activity by measuring fold reduction in meropenem MIC90 by checkerboard microdilution assay relative to meropenem alone
Enterobacteriaceae [29] = test: Inhibition of beta lactamase KPC in Enterobacteriaceae assessed as potentiation of meropenem-induced antibacterial activity by measuring meropenem MIC by broth microdilution method

fold change (FC) (Klebsiella pneumoniae [3]): < 1024
fold change (FC) (Klebsiella pneumoniae [4]): < 1024
fold change (FC) (Klebsiella pneumoniae [5]): < 1024
SMILES: NC[C@H]1CC([C@@H]2CC[C@@H]3CN2C(=O)N3OS(=O)(=O)O)=NO1

MIC50 (Enterobacteriaceae [6]): 0.125 µg/mL
MIC90 (Enterobacteriaceae [6]): 0.5 µg/mL
SMILES: Cn1cc[n+](C[C@@]2(C)[C@H](C(=O)[O-])N3C(=O)C[C@H]3S2(=O)=O)n1

MIC90 (Pseudomonas aeruginosa [20]): 8 µg/mL
MIC90 (Enterobacteriaceae [21]): < 2 µg/mL
MIC90 (Enterobacteriaceae [22]): < 2 µg/mL
MIC90 (Enterobacteriaceae [23]): < 2 µg/mL
MIC90 (Enterobacteriaceae [24]): < 2 µg/mL
MIC90 (Enterobacteriaceae [25]): < 2 µg/mL
MIC90 (Pseudomonas aeruginosa [26]): 2 µg/mL
SMILES: NC(=O)[C@@H]1CC[C@@H]2CN1C(=O)N2OS(=O)(=O)O

Further lines, the molecule ahead of its results:

SMILES: O=C(NOC1CCNC1)[C@@H]1CC2(CC2)[C@@H]2CN1C(=O)N2OS(=O)(=O)O (some centres undefined)
IC50 [1]: < 19 nM
IC50 [2]: < 19 nM

SMILES: O=C(NNC(=O)[C@@H]1CC[C@@H]2CN1C(=O)N2OS(=O)(=O)O)[C@@H]1CCCNC1
MIC90 (Enterobacteriaceae [7]): 1 µg/mL
fold change (FC) (Escherichia coli): 16
MIC90 (Enterobacteriaceae [8]): 0.5 µg/mL
MIC90 (Enterobacteriaceae [9]): 0.12 µg/mL
MIC90 (Enterobacteriaceae [10]): < 0.06 µg/mL
MIC90 (Pseudomonas aeruginosa [11]): 4 µg/mL
MIC90 (Enterobacteriaceae [12]): 0.25 µg/mL
fold change (FC) (Enterobacteriaceae [13]): 16
fold change (FC) [14]: 8
MIC90 (Enterobacteriaceae [15]): 1 µg/mL
MIC90 (Enterobacteriaceae [16]): 8 µg/mL
fold change (FC) (Klebsiella sp.): 16
MIC90 (Enterobacteriaceae [17]): 1 µg/mL
MIC90 (Acinetobacter sp.): 32 µg/mL
fold change (FC) [18]: 4

SMILES: CC(C)c1cccc2c(-c3ccc(S(=O)(=O)N(C)C)cc3)c(C(=O)O)[nH]c12
IC50 [19]: 0.35 nM

SMILES: O=C(O)C[C@@H]1CC[C@H](NC(=O)Cc2cccs2)B(O)O1
fold change (FC) [27]: 64
fold change (FC) [28]: 64
MIC50 (Enterobacteriaceae [29]): 0.12 µg/mL
MIC90 (Enterobacteriaceae [29]): 0.5 µg/mL
